Read-outs that look alike come from different tables or passages of the source. Each block holds one compound with its values, some of them ahead of it.
Tests used:
[1] = Single dose PK (SDPK) study, oral suspension; type: in vivo, Wistar Han rat; settings: for Cmax / Tmax: male, plasma, Wistar Han rat, n = 5; for Cmax: read-out: Cmax of Compound (I) (double prodrug) in plasma; for Tmax: read-out: Tmax of Compound (I) (double prodrug) in plasma
Method: Five male Wistar Han rats were administered a single oral dose of 100 or 200 mg/kg of compound (I) (either Form A or Form C). Drug was administered as a suspension in 2% klucel, 0.1% polysorbate 80 and 0.1% parabens in water. Samples were taken at various times up to 24 h and plasma was analysed for compound (I) (double prodrug), compound (Ia) (single prodrug) and compound (Ib) (single prodrug) and compound (III) (active Form).

[2] = Apparent solubility study in bio-relevant media; type: physicochemical; settings: for Solubility: 25° C.; for Solubility / solubility at 24 h: 24 hours; for Apparent solubility compared with Form Amorphous: comparison in words; for solubility at 24 h: 25 °C, thermodynamic from solid
Method: Apparent solubility was determined by suspending 5 mg of compound (I) in different bio-relevant media including pH buffers, SGF, FaSSIF, and FeSSIF. The suspensions were equilibrated at 25° C. for 24 hours. The suspensions were then filtered through a 0.22 μm PVDF filter into a 2-mL HPLC vial. The quantitation of the filtrate was conducted by HPLC with reference to a standard solution.

[3] = Physical stability of solid forms in stability chamber, solid form checked by XRPD; type: physicochemical; settings: for Physical stability (solid form by XRPD compared with initial solid form): 40° C./75%-RH, 1 month; for Stability compared with Form Amorphous: comparison in words, accelerated storage 40° C./75%-RH
Method: 40 mg compound (I) in different solid forms were stored in a stability chamber with temperature and humidity controlled at 40° C. and 75%-RH, respectively. After 1 month, the samples were analyzed by XRPD to check their solid form and compared with their initial solid form.

[4] = Solid form conversion in aqueous compositions; type: physicochemical
Method: Form A as prepared in Example 10 was suspended in water to form a slurry at room temperature for 2 hours to afford Form B, then the solid was collected by filtration and dried under vacuum. Depending on the solvation status Form B can be a solvate, a hydrate or a polymorph of compound (I).

Structure (SMILES): CC[C@H](OC(C)=O)[C@@H]1C[C@@H](O)[C@H](n2c(=O)sc3cnc(N)nc32)O1 [Form C of compound (I), [(1S)-1-[(2S,4R,5R)-5-(5-amino-2-oxo-thiazolo[4,5-d]pyrimidin-3-yl)-4-hydroxy-tetrahydrofuran-2-yl]propyl] acetate]
Cmax ([1]; PO 200 mg/kg): 259 ng/mL | Tmax ([1]; PO 200 mg/kg): 19.8 min | Solubility ([2]; FaSSIF, listed as Example 2, Form C of compound (I)): 2190 µg/mL | Solubility ([2]; FeSSIF, listed as Example 2, Form C of compound (I)): 2780 µg/mL | Solubility ([2]; SGF, listed as Example 2, Form C of compound (I)): >10000 µg/mL | Apparent solubility compared with Form Amorphous [2]: comparable apparent solubility | Solubility ([2]; pH1 buffer, listed as Example 2, Form C of compound (I)): >10000 µg/mL | Solubility ([2]; pH3 buffer, listed as Example 2, Form C of compound (I)): 4980 µg/mL | Solubility ([2]; pH5 buffer, listed as Example 2, Form C of compound (I)): 2240 µg/mL | Solubility ([2]; pH7 buffer, listed as Example 2, Form C of compound (I)): 2190 µg/mL | Solubility ([2]; pH9 buffer, listed as Example 2, Form C of compound (I)): 2320 µg/mL | Physical stability (solid form by XRPD compared with initial solid form) ([3]; listed as Example 2, Form C of compound (I)): no solid form change | Stability compared with Form Amorphous [3]: significantly improved stability | Stability compared with Form Amorphous ([3]; listed as Form C): better stability

Structure (SMILES): CC[C@H](OC(C)=O)[C@@H]1C[C@@H](O)[C@H](n2c(=O)sc3cnc(N)nc32)O1 [Form B of compound (I), [(1S)-1-[(2S,4R,5R)-5-(5-amino-2-oxo-thiazolo[4,5-d]pyrimidin-3-yl)-4-hydroxy-tetrahydrofuran-2-yl]propyl] acetate]
Solid form conversion / stability in aqueous environment [4]: better stability in aqueous environment | Solubility ([2]; FaSSIF, listed as Example 11, Form B of compound (I)): 3820 µg/mL | Solubility ([2]; FeSSIF, listed as Example 11, Form B of compound (I)): 4130 µg/mL | Solubility ([2]; SGF, listed as Example 11, Form B of compound (I)): >10000 µg/mL | Solubility ([2]; pH1 buffer, listed as Example 11, Form B of compound (I)): >10000 µg/mL | Solubility ([2]; pH3 buffer, listed as Example 11, Form B of compound (I)): 6920 µg/mL | Solubility ([2]; pH5 buffer, listed as Example 11, Form B of compound (I)): 3350 µg/mL | Solubility ([2]; pH7 buffer, listed as Example 11, Form B of compound (I)): 3400 µg/mL | Solubility ([2]; pH9 buffer, listed as Example 11, Form B of compound (I)): 3550 µg/mL | Physical stability (solid form by XRPD compared with initial solid form) ([3]; listed as Example 11, Form B of compound (I)): no solid form change | Stability compared with Form Amorphous [3]: better stability

Structure (SMILES): CC[C@H](OC(C)=O)[C@@H]1C[C@@H](O)[C@H](n2c(=O)sc3cnc(N)nc32)O1 [Form A of compound (I), [(1S)-1-[(2S,4R,5R)-5-(5-amino-2-oxo-thiazolo[4,5-d]pyrimidin-3-yl)-4-hydroxy-tetrahydrofuran-2-yl]propyl] acetate]
Conversion rate to the single prodrug in vivo ([1]; Form A at 100 mg/kg compared with Form C at 200 mg/kg, in words): faster conversion rate | Cmax ([1]; PO 100 mg/kg): 563 ng/mL | Tmax ([1]; PO 100 mg/kg): 90 min | Solubility ([2]; FaSSIF, listed as Example 10, Form A of compound (I)): 6330 µg/mL | Solubility ([2]; FeSSIF, listed as Example 10, Form A of compound (I)): 7930 µg/mL | Solubility ([2]; SGF, listed as Example 10, Form A of compound (I)): >16360 µg/mL | Solubility ([2]; pH1 buffer, listed as Example 10, Form A of compound (I)): >16280 µg/mL | Solubility ([2]; pH3 buffer, listed as Example 10, Form A of compound (I)): 12870 µg/mL | Solubility ([2]; pH5 buffer, listed as Example 10, Form A of compound (I)): 6390 µg/mL | Solubility ([2]; pH7 buffer, listed as Example 10, Form A of compound (I)): 6240 µg/mL | Solubility ([2]; pH9 buffer, listed as Example 10, Form A of compound (I)): 6380 µg/mL | Physical stability (solid form by XRPD compared with initial solid form) ([3]; listed as Example 10, Form A of compound (I)): no solid form change | Stability compared with Form Amorphous [3]: better stability

Now from value to compound:

Solubility ([2]; FaSSIF, listed as Example 1, Form Amorphous of compound (I)): 6930 µg/mL | Solubility ([2]; FeSSIF, listed as Example 1, Form Amorphous of compound (I)): 7350 µg/mL | solubility at 24 h ([2]; SGF, simulated gastric fluid): > 10000 µg/mL | solubility at 24 h ([2]; pH 1 buffer, pH 1, simulated gastric fluid, pH1 buffer): > 10000 µg/mL | Solubility ([2]; pH3 buffer, listed as Example 1, Form Amorphous of compound (I)): 9570 µg/mL | Solubility ([2]; pH5 buffer, listed as Example 1, Form Amorphous of compound (I)): 3830 µg/mL | Solubility ([2]; pH7 buffer, listed as Example 1, Form Amorphous of compound (I)): 4050 µg/mL | Solubility ([2]; pH9 buffer, listed as Example 1, Form Amorphous of compound (I)): 5030 µg/mL | Physical stability (solid form by XRPD compared with initial solid form) ([3]; listed as Example 1, Form Amorphous of compound (I)): solid form change | Tendency to form change ([3]; general finding in words): prone to crystallization
Structure (SMILES): CC[C@H](OC(C)=O)[C@@H]1C[C@@H](O)[C@H](n2c(=O)sc3cnc(N)nc32)O1 [Form Amorphous of compound (I), [(1S)-1-[(2S,4R,5R)-5-(5-amino-2-oxo-thiazolo[4,5-d]pyrimidin-3-yl)-4-hydroxy-tetrahydrofuran-2-yl]propyl] acetate]

Solubility ([2]; FaSSIF, listed as Example 12, Form G of compound (I)): 2490 µg/mL | Solubility ([2]; FeSSIF, listed as Example 12, Form G of compound (I)): 2790 µg/mL | Solubility ([2]; SGF, listed as Example 12, Form G of compound (I)): >10000 µg/mL | Apparent solubility compared with Form Amorphous [2]: comparable apparent solubility | Solubility ([2]; pH1 buffer, listed as Example 12, Form G of compound (I)): >10000 µg/mL | Solubility ([2]; pH3 buffer, listed as Example 12, Form G of compound (I)): 6440 µg/mL | Solubility ([2]; pH5 buffer, listed as Example 12, Form G of compound (I)): 3750 µg/mL | Solubility ([2]; pH7 buffer, listed as Example 12, Form G of compound (I)): 3700 µg/mL | Solubility ([2]; pH9 buffer, listed as Example 12, Form G of compound (I)): 3640 µg/mL | Physical stability (solid form by XRPD compared with initial solid form) ([3]; listed as Example 12, Form G of compound (I)): no solid form change | Stability compared with Form Amorphous [3]: improved stability | Stability compared with Form Amorphous ([3]; listed as Form G): better stability
Structure (SMILES): CC[C@H](OC(C)=O)[C@@H]1C[C@@H](O)[C@H](n2c(=O)sc3cnc(N)nc32)O1 [Form G of compound (I), [(1S)-1-[(2S,4R,5R)-5-(5-amino-2-oxo-thiazolo[4,5-d]pyrimidin-3-yl)-4-hydroxy-tetrahydrofuran-2-yl]propyl] acetate]
